Experimental data: US4400510A, “A-32256 Phenazine antibiotic” (Eli Lilly and Company, priority 1981, dated 1983)
Converted amounts (≈) assume the structure as drawn. “Also recorded” adds a separate entry of the source. Read-outs that look alike come from different tables or passages of the source.

Legend:
[1] = tested on: Eubacterium aerofaciens; assay: agar-dilution MIC vs. anaerobic bacteria; type: cell-based; conditions: strain 1235; Table 6
[2] = tested on: Peptococcus asaccharolyticus; assay: agar-dilution MIC vs. anaerobic bacteria; type: cell-based; conditions: strain 1302; Table 6
[3] = tested on: Peptostreptococcus anaerobius; assay: agar-dilution MIC vs. anaerobic bacteria; type: cell-based; conditions: strain 1428, Table 6
[4] = tested on: Peptostreptococcus intermedius; assay: agar-dilution MIC vs. anaerobic bacteria; type: cell-based; conditions: strain 1264, Table 6
[5] = tested on: Propionibacterium acnes; assay: agar-dilution MIC vs. anaerobic bacteria; type: cell-based; conditions: strain 79; Table 6
[6] = tested on: Bacteroides melanogenicus; assay: agar-dilution MIC vs. anaerobic bacteria; type: cell-based; conditions: Table 6
[7] = tested on: Bacteroides vulgatis; assay: agar-dilution MIC vs. anaerobic bacteria; type: cell-based; conditions: strain 1211; Table 6
[8] = tested on: Bacteroides corrodens; assay: agar-dilution MIC vs. anaerobic bacteria; type: cell-based; conditions: Eikenella corrodens; strain 1874; Table 6
[9] = tested on: Fusobacterium symbiosum; assay: agar-dilution MIC vs. anaerobic bacteria; type: cell-based; conditions: strain 1470; Table 6
[10] = tested on: Fusobacterium necrophorum; assay: agar-dilution MIC vs. anaerobic bacteria; type: cell-based; conditions: Fusobacterium necrophorum; strain 6054A; Table 6; read-out: MIC
[11] = tested on: Propionibacterium acnes; assay: agar-dilution MIC against Propionibacterium acnes; type: cell-based; conditions: Cutibacterium acnes, Table 7
Excerpt: (§1) The agar-dilution procedure described by the International Collaborative Study (ICS) group was used to determine MIC values.
Antibiotic A-32256 is also active against a genus of anaerobic bacteria identified as Propionibacterium acnes, the MIC values being determined by the agar-dilution method, and set forth in Table 7, which follows.

[12] = tested on: Peptococcus asaccharolyticus; assay: agar-dilution MIC vs. Peptococcus and Peptostreptococcus species; type: cell-based; conditions: Table 9
Description: as §1
(§2) The MIC values were determined by the agar-dilution method, and are recorded in Table 9, which follows.

[13] = tested on: Peptococcus constellatus; assay: as above; type: cell-based; conditions: Pc. constellatus 1468; Table 9
Description: as §1, §2

[14] = tested on: Peptococcus magnus; assay: as above; type: cell-based; conditions: Table 9
Description: as §1, §2

[15] = tested on: Peptococcus prevoti; assay: as above; type: cell-based; conditions: Table 9
Description: as §1, §2

[16] = tested on: Peptostreptococcus anaerobius; assay: as above; type: cell-based; conditions: Table 9
Description: as §1, §2

[17] = tested on: Peptostreptococcus intermedius; assay: as above; type: cell-based; conditions: Table 9
Description: as §1, §2

[18] = tested on: Trichomonas vaginalis; assay: broth dilution assay, antitrichomonal activity; type: cell-based; conditions: in vitro
[19] = improvement of ruminant feed efficiency; type: in vivo
Description: Suitable rates of administration are in the range of from about 10 to about 100 g/ton (from about 11 to about 111 ppm) of feed, or from about 0.25 mg to about 2.9 mg/kg of body weight of the ruminant. The preferred level of administration of A-32256 is from about 0.5 to about 1 mg/kg of body weight of ruminant, or about 50 g/ton of feed.

[20] = tested on: mosquito; assay: mosquito larvacide activity; type: in vivo; conditions: application rate of about 20 ppm
Excerpt: Antibiotic A-32256 is also active as a mosquito larvacide at an application rate of about 20 ppm.

[21] = potentiometric titration; type: physicochemical; conditions: 66% dimethylformamide in water, initial pH 4.1
Description: Antibiotic A-32256 is a green, crystalline solid having a melting point of about 196°-198° C. The antibiotic has a molecular weight of 402, as determined by electron-impact mass spectrometry, and an approximate elemental analysis as follows: 68.71% carbon, 4.48% hydrogen, 6.93% nitrogen, and 19.21% oxygen. Based on elemental analysis and molecular weight, an empirical formula of C23 H18 N2 O5 is assigned to antibiotic A-32256. […] Antibiotic A-32256 has specific rotation of [α]D^25 +5° (c 0.96, chloroform).

[22] = solubility; type: physicochemical
[23] = tested on: Staphylococcus aureus; assay: disc-plate screening procedure, zone of inhibition
[24] = tested on: Streptococcus sp. (Group D); assay: disc-plate screening procedure, zone of inhibition; conditions: read-out: Zone Diameter

Cc1cccc(O)c1C(=O)OC(C)c1cccc2nc3c(C(=O)O)cccc3nc12 (stereo not drawn) [Antibiotic A-32256, 6-[1-[(2-hydroxy-6-methylbenzoyl)oxy]-ethyl]-1-phenazinecarboxylic acid]
MIC [1]: 2 µg/mL (≈ 4.97 µM) | MIC [2]: 16 µg/mL (≈ 39.8 µM) | MIC [3]: ≤ 0.5 µg/mL | MIC [4]: ≤ 0.5 µg/mL | MIC [5]: 2 µg/mL (≈ 4.97 µM) | MIC ([6]; Bacteroides, strain 1856/28, read-out: MIC): 16 µg/mL (≈ 39.8 µM) | MIC ([6]; strain 2736): 16 µg/mL (≈ 39.8 µM) | MIC [7]: 8 µg/mL (≈ 19.9 µM) | MIC [8]: ≤ 0.5 µg/mL | MIC [9]: 2 µg/mL (≈ 4.97 µM) | MIC [10]: 1 µg/mL (≈ 2.49 µM) | MIC ([11]; P. acnes 44): ≤ 0.015 µg/mL | MIC ([11]; P. acnes 79): ≤ 0.015 µg/mL | MIC ([11]; P. acnes 101): ≤ 0.015 µg/mL | MIC ([11]; P. acnes 103): ≤ 0.015 µg/mL | MIC ([11]; P. acnes 104): ≤ 0.015 µg/mL | MIC ([11]; P. acnes 105): 0.03 µg/mL (≈ 0.0746 µM) | MIC ([11]; P. acnes 106): 0.06 µg/mL (≈ 0.149 µM) | MIC ([11]; P. acnes 107): ≤ 0.015 µg/mL | MIC ([11]; P. acnes 108): 0.03 µg/mL (≈ 0.0746 µM) | MIC ([11]; P. acnes 5170): ≤ 0.015 µg/mL | MIC ([11]; P. acnes 5176): ≤ 0.015 µg/mL | MIC ([11]; P. acnes 5187): ≤ 0.015 µg/mL | MIC ([11]; P. acnes 5191): 0.06 µg/mL (≈ 0.149 µM) | MIC ([11]; P. acnes 5197): ≤ 0.015 µg/mL | MIC ([11]; P. acnes 5226): ≤ 0.015 µg/mL | MIC ([11]; P. acnes 5227): ≤ 0.015 µg/mL | MIC ([11]; P. acnes 5228): ≤ 0.015 µg/mL | MIC ([11]; P. acnes 5229): 0.03 µg/mL (≈ 0.0746 µM) | MIC ([11]; P. acnes 5246): ≤ 0.015 µg/mL | MIC ([12]; Pc. asaccharolyticus 1302): 2 µg/mL (≈ 4.97 µM) | MIC ([12]; Pc. asaccharolyticus 1344): 2 µg/mL (≈ 4.97 µM) | MIC [13]: 8 µg/mL (≈ 19.9 µM) | MIC ([14]; Pc. magnus 1401): 2 µg/mL (≈ 4.97 µM) | MIC ([14]; Pc. magnus 1421): 0.5 µg/mL (≈ 1.24 µM) | MIC ([14]; Pc. magnus 1477): 0.5 µg/mL (≈ 1.24 µM) | MIC ([15]; Pc. prevoti 1281): 2 µg/mL (≈ 4.97 µM) | MIC ([15]; Pc. prevoti 1293): 16 µg/mL (≈ 39.8 µM) | MIC ([15]; Pc. prevoti 1407): 2 µg/mL (≈ 4.97 µM) | MIC ([16]; Peptostreptococcus anaerobius, Ps. anaerobius 1428, read-out: MIC): ≤ 0.125 µg/mL | MIC ([16]; Ps. anaerobius 8): 2 µg/mL (≈ 4.97 µM) | MIC ([16]; Ps. anaerobius 52): 8 µg/mL (≈ 19.9 µM) | MIC ([16]; Ps. anaerobius 59): 0.5 µg/mL (≈ 1.24 µM) | MIC ([16]; Ps. anaerobius 1418): 0.25 µg/mL (≈ 0.621 µM) | MIC ([16]; Ps. anaerobius 1451): 0.5 µg/mL (≈ 1.24 µM) | MIC ([16]; Ps. anaerobius 1477): 8 µg/mL (≈ 19.9 µM) | MIC ([17]; Ps. intermedius 1264): 2 µg/mL (≈ 4.97 µM) | MIC ([17]; Ps. intermedius 1524, read-out: MIC): ≤ 0.125 µg/mL | MIC ([17]; Ps. intermedius 1624): 8 µg/mL (≈ 19.9 µM) | antitrichomonal activity [18]: has shown antitrichomonal activity in vitro | improvement of ruminant feed efficiency [19]: has shown utility for the improvement of ruminant feed efficiency | mosquito larvacide activity [20]: active | pKa ([21]; pH 4.1, first titratable group): ~5.02 | pKa ([21]; pH 4.1, second titratable group): ~7.2 | solubility ([22]; acetone): moderately soluble | solubility ([22]; alkaline aqueous solutions): soluble | solubility ([22]; chloroform): easily soluble | solubility ([22]; cyclohexane): sparingly soluble | solubility ([22]; dimethyl sulfoxide): moderately soluble | solubility ([22]; dioxane): moderately soluble | solubility ([22]; ethanol): sparingly soluble | solubility ([22]; ethyl acetate): moderately soluble | solubility ([22]; hexane): sparingly soluble | solubility ([22]; methanol): sparingly soluble | solubility ([22]; pyridine): easily soluble | solubility ([22]; tetrahydrofuran): easily soluble | solubility ([22]; water): not water soluble; also recorded: insoluble | zone of inhibition at 30 µg/disc ([23]; read-out: Zone Diameter, S. aureus 3055, benzylpenicillin-susceptible, 30 mcg/disc): 23 mm | zone of inhibition at 300 µg/disc ([23]; read-out: Zone Diameter, S. aureus 3055, benzylpenicillin-susceptible, 300 mcg/disc): 26.2 mm | zone of inhibition at 30 µg/disc ([23]; read-out: Zone Diameter, S. aureus 3074, benzylpenicillin-resistant, 30 mcg/disc): 10 mm | zone of inhibition at 300 µg/disc ([23]; read-out: Zone Diameter, S. aureus 3074, benzylpenicillin-resistant, 300 mcg/disc): 12.2 mm | zone of inhibition at 30 µg/disc ([23]; read-out: Zone Diameter, S. aureus 3130, methicillin-resistant, 30 mcg/disc): 25.8 mm | zone of inhibition at 300 µg/disc ([23]; read-out: Zone Diameter, S. aureus 3130, methicillin-resistant, 300 mcg/disc): 30 mm | zone of inhibition at 30 µg/disc [24]: 18.2 mm | zone of inhibition at 300 µg/disc [24]: 21 mm
